# Tested on: not listed separately
# Experiment: Inhibition of recombinant Plasmodium falciparum PKG using FAM-PKAtide as substrate preincubated for 15 mins followed by substrate addition and measured after 1 hr by IMAP fluorescence polarization assay
# Details: not given; call rule not given here
row,Structure (SMILES),IC50
1,O=C(c1cnoc1)N1CC[C@@H](Nc2nccc(-c3c(-c4ccccc4)noc3CN3CCCC3)n2)C1,1400 nM
2,Cc1onc(-c2ccccc2)c1-c1ccnc(N[C@@H]2CCN(C(=O)c3cccnc3)C2)n1,1000 nM
3,Cc1onc(-c2ccccc2)c1-c1ccnc(N[C@@H]2CCN(C(=O)c3cnccn3)C2)n1,2000 nM
4,CCN(CC)Cc1onc(-c2ccccc2)c1-c1ccnc(N[C@@H]2CCN(C(=O)c3cnoc3)C2)n1,850 nM
5,Cc1onc(-c2ccccc2)c1-c1ccnc(N[C@@H]2CCN(C(=O)c3cnoc3)C2)n1,750 nM
6,O=C(c1cnoc1)N1CC[C@@H](Nc2nccc(-c3c(-c4ccccc4)noc3CN3CCOCC3)n2)C1,1000 nM
7,CCN(CC)Cc1onc(-c2ccccc2F)c1-c1ccnc(N[C@@H]2CCN(C(=O)c3cnoc3)C2)n1,900 nM
8,O=C(c1cnoc1)N1CC[C@@H](Nc2nccc(-c3c(-c4ccccc4)noc3CO)n2)C1,1000 nM
9,Cc1onc(-c2ccccc2Cl)c1-c1ccnc(N[C@@H]2CCN(C(=O)c3cnoc3)C2)n1,2100 nM
10,CCN(CC)Cc1onc(-c2ccc(F)cc2)c1-c1ccnc(N[C@@H]2CCN(C(=O)c3cnoc3)C2)n1,660 nM
11,Cc1onc(-c2ccc(Cl)cc2)c1-c1ccnc(N[C@@H]2CCN(C(=O)c3cnoc3)C2)n1,2800 nM
12,CCN(CC)Cc1onc(-c2cccc(Cl)c2)c1-c1ccnc(N2CC(C(=O)c3ccsn3)C2)n1,2600 nM

# Next, values leading:
row,IC50,Structure (SMILES)
1,620 nM,CCN(CC)Cc1onc(-c2cccc(Cl)c2)c1-c1ccnc(N[C@@H]2CCN(C(=O)c3nc[nH]n3)C2)n1
2,360 nM,CCN(CC)Cc1onc(-c2cccc(F)c2)c1-c1ccnc(N[C@@H]2CCN(C(=O)c3cnoc3)C2)n1
3,210 nM,Cc1onc(-c2cccc(Cl)c2)c1-c1ccnc(N[C@@H]2CCN(C(=O)c3cnoc3)C2)n1
4,120 nM,CCN(CC)Cc1onc(-c2cccc(Cl)c2)c1-c1ccnc(N[C@@H]2CCN(C(=O)c3cc[nH]n3)C2)n1
5,97 nM,CCN(CC)Cc1onc(-c2cccc(Cl)c2)c1-c1ccnc(N[C@@H]2CCN(C(=O)c3cn[nH]c3)C2)n1
6,74 nM,CCN(CC)Cc1onc(-c2cccc(Cl)c2)c1-c1ccnc(N[C@@H]2CCN(C(=O)c3cnsc3)C2)n1
7,47 nM,CCN(CC)Cc1onc(-c2cccc(Cl)c2)c1-c1ccnc(N[C@@H]2CCN(C(=O)c3c[nH]cn3)C2)n1
8,38 nM,CCN(CC)Cc1onc(-c2cccc(Cl)c2)c1-c1ccnc(N[C@@H]2CCN(C(=O)c3cnn(C)c3)C2)n1
9,25 nM,CCN(CC)Cc1onc(-c2cccc(Cl)c2)c1-c1ccnc(N[C@@H]2CCN(C(=O)c3ccon3)C2)n1
10,15 nM,CCN(CC)Cc1onc(-c2cccc(Cl)c2)c1-c1ccnc(N[C@@H]2CCN(C(=O)c3ccsn3)C2)n1
11,13 nM,CCN(CC)Cc1onc(-c2cccc(Cl)c2)c1-c1ccnc(N[C@@H]2CCN(C(=O)c3cnoc3)C2)n1
12,10 nM,CCN(CC)Cc1onc(-c2cccc(Cl)c2)c1-c1ccnc(N[C@@H]2CCN(C(=O)c3ccn(C)n3)C2)n1

# Tested on: Plasmodium falciparum
# Experiment: Inhibition of recombinant Plasmodium falciparum PKG using FAM-PKAtide as substrate at 10 uM preincubated for 15 mins followed by substrate addition and measured after 1 hr by IMAP fluorescence polarization assay relative to control
# Details: time 75.0 min
row,inhibition,Structure (SMILES)
1,5%,CCN(CC)Cc1onc(-c2cccc(Cl)c2)c1-c1ccnc(N[C@@H]2CCN(Cc3cnn(C)c3)C2)n1
2,23%,CCOC(=O)c1onc(-c2ccccc2)c1-c1ccnc(N[C@@H]2CCN(C(=O)c3cnoc3)C2)n1
3,5%,CCN(CC)Cc1onc(-c2cccc(Cl)c2)c1-c1ccnc(N[C@@H]2CCN(Cc3ccn(C)n3)C2)n1
4,46%,CCN(CC)Cc1onc(-c2cccc(Cl)c2)c1-c1ccnc(N2CCC(C(=O)c3ccsn3)CC2)n1
5,60%,O=C(c1cnoc1)N1CC[C@H](Nc2nccc(-c3c(-c4ccccc4)noc3CO)n2)C1
6,40%,CCN(CC)Cc1onc(-c2cccc(Cl)c2)c1-c1ccnc(N[C@@H]2CCN(S(=O)(=O)c3cnn(C)c3)C2)n1
7,75%,CCN(CC)Cc1onc(-c2cccc(Cl)c2)c1-c1ccnc(N2CCCC(C(=O)c3ccsn3)C2)n1 (racemic)
8,60%,CCN(CC)Cc1onc(-c2cccc(Cl)c2)c1-c1ccnc(N2CCCC2CC(=O)c2ccsn2)n1 (racemic)

# Tested on: not listed separately
# Experiment: Inhibition of human PKG measured up to 10 uM
# Details: not given
row,inhibition (INH),Structure (SMILES)
1,Not Active,CCN(CC)Cc1onc(-c2ccccc2)c1-c1ccnc(N[C@@H]2CCN(C(=O)c3cnoc3)C2)n1
2,Not Active,Cc1onc(-c2cccc(Cl)c2)c1-c1ccnc(N[C@@H]2CCN(C(=O)c3cnoc3)C2)n1
